This note sets out measurements from ChEMBL document CHEMBL1201862, “PubChem BioAssay data set” (2004).

Holding throughout (experiment): growth of human tumour cells (NCI), 48 h
Assay [1] relates to A549.
The subject of assay [2] is CAKI-1.
In assay [3] the test system is EKVX.
Assay [4] relates to HCC 2998.
The test system of assay [5] is HCT-15.
For assay [6], the system named is HOP-62.
Assay [7] relates to KM-20L2.
The test system of assay [8] is KM12.
Assay [9] concerns Malme-3M.
The subject of assay [10] is SF-295.
The test system of assay [11] is SK-MEL-28.
Assay [12] has as its system SK-MEL-5.
Assay [13] relates to SK-OV-3.
Assay [14] concerns SN12C.
The test system of assay [15] is SNB-19.
Assay [16] has as its system TK-10.
Assay [17] has as its system UO-31.
Assay [18] concerns NCI-H226.

SMILES strings stand for the structures.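 Following 48 hours of exposure in 96-well plates, responses at five concentrations were used to interpolate endpoints linearly. Abbreviation: GI50, concentration required for 50% inhibition of growth.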 The source made the active and inactive calls. Cut-off read from the data, not from the text of the source: active = GI50 up to about 1.1 µM and inactive = higher.

In the case of `O=C(Nc1nnc(S)[nH]1)C(=O)C1C(=O)Nc2ccccc2[S+]1[O-]` (stereo not drawn), the GI50 was > 100 µM (inactive) in assay [1]; > 100 µM (inactive) in [2]; > 100 µM (inactive) in assay [3]; > 100 µM (inactive) in assay [4]; over 100 µM in assay [5]; > 100 µM (inactive) in assay [6]. Further, the GI50 in [7], in assay [8], in assay [9], in assay [10], in assay [11] and in assay [12] was > 100 µM (inactive) each time. Besides, the GI50 in assay [13], in assay [14], in [15], in [16] and in assay [17] was > 100 µM (inactive) each time.
`CO[C@@H]1C=C[C@@]23c4cc5c(cc4C(=O)O[C@H]2CN(C)[C@H]3C1)OCO5`: the GI50 in [1], in [3], in assay [4], in assay [7], in [8] and in assay [10] was > 100 µM (inactive) throughout. For the same compound, the GI50 in assay [11], in assay [12], in [13], in [14], in assay [15] and in [16] was > 100 µM (inactive) throughout. In addition, in assay [17], the GI50 was > 100 µM (inactive).
With `CCOC(=O)C1C(=O)c2cccc(OC)c2C2COC(=O)N12` (stereo not drawn), the GI50 in [1] was > 100 µM (inactive); in [3], > 100 µM (inactive); in [4], > 100 µM (inactive); in assay [5], over 100 µM; in assay [6] it was > 100 µM (inactive); in assay [7], > 100 µM (inactive). Also, the GI50 in [8], in [9], in assay [18], in assay [10], in [11] and in [12] was > 100 µM (inactive) in each case. The GI50 in assay [13], in [14], in assay [15], in [16] and in [17] was > 100 µM (inactive) each time.
As for `CCCCCCCCCCCCCC(=O)OCC1OC(OC)C(NC(=O)N(CCCl)N=O)C(O)C1O` (stereo not drawn), the GI50 in assay [1] is 15.6 µM (inactive); in [2], > 100 µM (inactive); in assay [4] it was 28.1 µM (inactive); in assay [5], 34.8 µM; in assay [6] it was 17.2 µM (inactive); in assay [7], 21 µM (inactive). Also, the GI50 in assay [8] is 24.4 µM (inactive); in assay [9], 27 µM (inactive); in assay [18], 24.8 µM (inactive); in assay [10], 7.43 µM (inactive); in assay [11], 25.3 µM (inactive); in [12] it was 16.2 µM (inactive). Moreover, the GI50 in [14] is 25.5 µM (inactive); in assay [15], 18.5 µM (inactive); in [16] it was 37.9 µM (inactive); in assay [17] it was 22.6 µM (inactive).
Take `C[N+](C)(C)CC(=O)N/N=C(/Cc1nc2ccc(Cl)cc2nc1O)C1=NS(=O)(=O)c2cc(S(N)(=O)=O)c(Cl)cc2N1`: the GI50 in assay [1] was > 100 µM (inactive); in [3], 6.75 µM (inactive); in [4], > 100 µM (inactive); in [6] it was > 100 µM (inactive); in [7], > 100 µM (inactive); in assay [8] it was > 100 µM (inactive). For the same compound, the GI50 in [9], in [10], in assay [11], in assay [12], in [13] and in assay [14] was > 100 µM (inactive) in each case. Also, the GI50 in [15], in assay [16] and in assay [17] was > 100 µM (inactive) in each case.
